Data published in article PMC9714295, “DadY (PA5303) is required for fitness of Pseudomonas aeruginosa when growth is dependent on alanine catabolism” (Microbial Cell, 2022).

What was measured:
DadA = biological target: T1, DadA (Pseudomonas aeruginosa, UniProt Q9HTQ0); test: semicarbazone formation, A248; format: biochemical; conditions: 7.5 mM D-alanine; 10 mM semicarbazide, 30 uM FAD, 100 uM ubiquinone-1; pH 8.7, 25 C; no DadY
T1 construct: gene dadA1
T1 sequence (Q9HTQ0 1-432): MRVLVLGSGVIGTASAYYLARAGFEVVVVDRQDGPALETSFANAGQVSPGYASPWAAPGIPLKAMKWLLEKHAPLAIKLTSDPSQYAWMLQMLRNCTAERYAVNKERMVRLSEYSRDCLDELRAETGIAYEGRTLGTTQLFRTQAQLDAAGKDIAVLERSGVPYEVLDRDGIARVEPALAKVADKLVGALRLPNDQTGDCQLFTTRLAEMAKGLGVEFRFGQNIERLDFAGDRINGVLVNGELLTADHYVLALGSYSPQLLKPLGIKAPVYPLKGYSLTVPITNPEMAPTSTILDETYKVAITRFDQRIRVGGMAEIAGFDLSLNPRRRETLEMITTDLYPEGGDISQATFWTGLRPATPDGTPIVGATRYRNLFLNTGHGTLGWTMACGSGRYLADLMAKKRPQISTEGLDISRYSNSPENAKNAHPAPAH

DadY (PA5303) = biological target: T2, DadY (PA5303) (Pseudomonas aeruginosa, UniProt Q9HTQ1); test: semicarbazone competition assay, A248, imine generated by DadA; format: biochemical; conditions: imine made in situ from 7.5 mM D-alanine by 0.5 uM DadA; 5 uM DadY; 10 mM semicarbazide, FAD, ubiquinone-1; pH 8.7, 25 C
T2 sequence (Q9HTQ1 1-117): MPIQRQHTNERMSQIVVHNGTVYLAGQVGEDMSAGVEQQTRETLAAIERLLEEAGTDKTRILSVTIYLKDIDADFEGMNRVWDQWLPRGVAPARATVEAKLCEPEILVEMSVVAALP

Compound	semicarbazone formation, A248 (DadA)	semicarbazone competition assay, A248, imine generated by DadA (DadY (PA5303))
C[C@@H](N)C(=O)O [D-alanine]	When DadA used D-alanine as a substrate and semicarbazide was present, a semicarbazone compound was formed	
CC(=N)C(=O)O [imino-alanine]		DadY could act on the imine derived from D-alanine that was generated by DadA
